Source: ChEMBL document CHEMBL1154899, “Synthesis and biological evaluation of caffeic acid 3,4-dihydroxyphenethyl ester” (J Nat Prod, 2010)

Assays:
Format in all cases: functional
Malme-3M [1] = experiment: Antiproliferative activity against human MALME-3M cells assessed as cell growth at 50 uM by SRB assay; conditions: read-out: Activity
COLO 205 [2] = experiment: Antiproliferative activity against human COLO205 cells by SRB assay
HL-60(TB) = experiment: Antiproliferative activity against human HL-60(TB) cells assessed as cell growth at 0.5 uM by SRB assay; conditions: read-out: Activity
UACC-257 = experiment: Antiproliferative activity against human UACC257 cells assessed as cell growth at 5 mM by SRB assay; conditions: read-out: Activity
T47D = experiment: Antiproliferative activity against human T47D cells assessed as cell growth at 0.5 uM by SRB assay; conditions: read-out: Activity
SK-OV-3 = experiment: Antiproliferative activity against human SKOV3 cells assessed as cell growth at 0.5 uM by SRB assay; conditions: read-out: Activity
HOP-62 [3] = experiment: Antiproliferative activity against human HOP62 cells assessed as cell growth at 5 uM by SRB assay; conditions: read-out: Activity
SN12C [4] = experiment: Antiproliferative activity against human SN12C cells assessed as cell growth at 50 uM by SRB assay; conditions: read-out: Activity
MCF7 [5] = experiment: Antiproliferative activity against human MCF7 cells assessed as cell growth at 500 uM by SRB assay; conditions: read-out: Activity
HOP-62 [6] = experiment: Antiproliferative activity against human HOP62 cells by SRB assay
SK-MEL-2 [7] = experiment: Antiproliferative activity against human SK-MEL-2 cells by SRB assay
SF-268 = experiment: Antiproliferative activity against human SF268 cells assessed as cell growth at 5 uM by SRB assay; conditions: read-out: Activity
HOP-92 [8] = experiment: Antiproliferative activity against human HOP92 cells assessed as cell growth at 50 uM by SRB assay; conditions: read-out: Activity
HT-29 = experiment: Antiproliferative activity against human HT-29 cells assessed as cell growth at 500 uM by SRB assay; conditions: read-out: Activity
Malme-3M [9] = experiment: Antiproliferative activity against human MALME-3M cells by SRB assay
COLO 205 [10] = experiment: Antiproliferative activity against human COLO205 cells assessed as cell growth at 0.5 uM by SRB assay; conditions: read-out: Activity
[11] = Antiproliferative activity against human Hs 578T cells assessed as cell growth at 500 uM by SRB assay; conditions: read-out: Activity
UO-31 = experiment: Antiproliferative activity against human UO31 cells assessed as cell growth at 5 mM by SRB assay; conditions: read-out: Activity
MCF7 [12] = experiment: Antiproliferative activity against human MCF7 cells assessed as cell growth at 50 uM by SRB assay; conditions: read-out: Activity
K562 = experiment: Antiproliferative activity against human K562 cells assessed as cell growth at […] by SRB assay; conditions: read-out: Activity
A498 = experiment: Antiproliferative activity against human A498 cells assessed as cell growth at 500 uM by SRB assay; conditions: read-out: Activity
HCC 2998 = experiment: Antiproliferative activity against human HCC2998 cells assessed as cell growth at […] by SRB assay; conditions: read-out: Activity
NCI-H23 = experiment: Antiproliferative activity against human NCI-H23 cells assessed as cell growth at 500 uM by SRB assay; conditions: read-out: Activity
LOX IMVI = experiment: Antiproliferative activity against human LOXIMVI cells assessed as cell growth at 0.5 uM by SRB assay; conditions: read-out: Activity
COLO 205 [13] = experiment: Antiproliferative activity against human COLO205 cells assessed as cell growth at 5 uM by SRB assay; conditions: read-out: Activity
SN12C [14] = experiment: Antiproliferative activity against human SN12C cells assessed as cell growth at 500 uM by SRB assay; conditions: read-out: Activity
NCI-H522 = experiment: Antiproliferative activity against human NCI-H522 cells assessed as cell growth at 50 uM by SRB assay; conditions: read-out: Activity
SK-MEL-28 = experiment: Antiproliferative activity against human SK-MEL-28 cells assessed as cell growth at 0.5 uM by SRB assay; conditions: read-out: Activity
NCI-H226 = experiment: Antiproliferative activity against human NCI-H226 cells assessed as cell growth at 5 uM by SRB assay; conditions: read-out: Activity
SF-295 = experiment: Antiproliferative activity against human SF295 cells assessed as cell growth at 500 uM by SRB assay; conditions: read-out: Activity
RXF 393 = experiment: Antiproliferative activity against human RXF393 cells assessed as cell growth at 0.5 uM by SRB assay; conditions: read-out: Activity
SW-620 = experiment: Antiproliferative activity against human SW620 cells assessed as cell growth at 0.5 uM by SRB assay; conditions: read-out: Activity
NCI-H460 = experiment: Antiproliferative activity against human NCI-H460 cells assessed as cell growth at 500 uM by SRB assay; conditions: read-out: Activity
[15] = Antiproliferative activity against human Hs 578T cells assessed as cell growth at 5 uM by SRB assay; conditions: read-out: Activity
SK-MEL-2 [16] = experiment: Antiproliferative activity against human SK-MEL-2 cells assessed as cell growth at 50 uM by SRB assay; conditions: read-out: Activity
HCT-15 [17] = experiment: Antiproliferative activity against human HCT15 cells assessed as cell growth at 50 uM by SRB assay; conditions: read-out: Activity
HCT-15 [18] = experiment: Antiproliferative activity against human HCT15 cells assessed as cell growth at 5 uM by SRB assay; conditions: read-out: Activity
OVCAR-8 = experiment: Antiproliferative activity against human OVCAR8 cells assessed as cell growth at 500 uM by SRB assay; conditions: read-out: Activity
UACC-62 = experiment: Antiproliferative activity against human UACC62 cells assessed as cell growth at 5 uM by SRB assay; conditions: read-out: Activity
SN12C [19] = experiment: Antiproliferative activity against human SN12C cells by SRB assay
HOP-92 [20] = experiment: Antiproliferative activity against human HOP92 cells assessed as cell growth at 5 uM by SRB assay; conditions: read-out: Activity
OVCAR-4 = experiment: Antiproliferative activity against human OVCAR4 cells assessed as cell growth at 5 mM by SRB assay; conditions: read-out: Activity
CAKI-1 = experiment: Antiproliferative activity against human Caki1 cells by SRB assay
786-0 = experiment: Antiproliferative activity against human 786-0 cells assessed as cell growth at 5 uM by SRB assay; conditions: read-out: Activity
[21] = read-out: LC50 (the source's name)
[22] = read-out: pLC50 (the source's name) (converted)

`O=C(/C=C/c1ccc(O)c(O)c1)OCCc1ccc(O)c(O)c1` showed a growth at 50 µM (Malme-3M [1]) of 102%, a GI50 (COLO 205 [2]; read-out: GI50) of 18.8 µM and a CC50 (COLO 205 [2]; [21]) of over 50 µM. For the same compound, the TGI (COLO 205 [2]; read-out: TGI) was over 50 µM, the GI50 (COLO 205 [2]; read-out: pGI50 (converted)) was 18.6 µM and the CC50 (COLO 205 [2]; [22]) was over 50.1 µM. For the same compound, the TGI (COLO 205 [2]; read-out: pTGI) was over 50.1 µM, the growth at 0.5 µM (HL-60(TB)) was 94% and the growth at 5000 µM (UACC-257) was 18%. It also gave a growth at 0.5 µM (T47D) of 98%, a growth at 0.5 µM (SK-OV-3) of 99% and a growth at 5 µM (HOP-62 [3]) of 89%. For the same compound, the growth at 50 µM (SN12C [4]) was 81%, the growth at 500 µM (MCF7 [5]) was 45% and the GI50 (HOP-62 [6]; read-out: GI50) was 29.1 µM. The CC50 (HOP-62 [6]; [21]) was over 50 µM, the TGI (HOP-62 [6]; read-out: TGI) was over 50 µM and the GI50 (HOP-62 [6]; read-out: pGI50 (converted)) was 28.8 µM. The CC50 (HOP-62 [6]; [22]) was over 50.1 µM, the TGI (HOP-62 [6]; read-out: pTGI) was over 50.1 µM and the GI50 (SK-MEL-2 [7]; read-out: GI50) was 3.02 µM. For the same compound, the CC50 (SK-MEL-2 [7]; [21]) was over 50 µM, the TGI (SK-MEL-2 [7]; read-out: TGI) was 23.7 µM and the GI50 (SK-MEL-2 [7]; read-out: pGI50 (converted)) was 3.02 µM. It also gave a CC50 (SK-MEL-2 [7]; [22]) of over 50.1 µM, a TGI (SK-MEL-2 [7]; read-out: pTGI (converted)) of 23.4 µM and a growth at 5 µM (SF-268) of 91%. It also gave a growth at 50 µM (HOP-92 [8]) of 55%, a growth at 500 µM (HT-29) of 99% and a GI50 (Malme-3M [9]; read-out: GI50) of 18.6 µM. For the same compound, the CC50 (Malme-3M [9]; [21]) was over 50 µM, the TGI (Malme-3M [9]; read-out: TGI) was over 50 µM and the GI50 (Malme-3M [9]; read-out: pGI50 (converted)) was 18.6 µM. For the same compound, the CC50 (Malme-3M [9]; [22]) was over 50.1 µM, the TGI (Malme-3M [9]; read-out: pTGI) was over 50.1 µM and the growth at 0.5 µM (COLO 205 [10]) was 99%. It also gave a growth at 500 µM [11] of 67%, a growth at 5000 µM (UO-31) of -14% and a growth at 50 µM (MCF7 [12]) of 92%. For the same compound, the growth (K562) was -8%, the growth at 500 µM (A498) was 68% and the growth (HCC 2998) was 18%. The growth at 500 µM (NCI-H23) was 78%, the growth at 0.5 µM (LOX IMVI) was 92% and the growth at 5 µM (COLO 205 [13]) was 94%. It also gave a growth at 500 µM (SN12C [14]) of 65%, a growth at 50 µM (NCI-H522) of 77% and a growth at 0.5 µM (SK-MEL-28) of 97%. It also gave a growth at 5 µM (NCI-H226) of 99%, a growth at 500 µM (SF-295) of 92% and a growth at 0.5 µM (RXF 393) of 88%. The growth at 0.5 µM (SW-620) was 98%, the growth at 500 µM (NCI-H460) was 94% and the growth at 5 µM [15] was 80%. For the same compound, the growth at 50 µM (SK-MEL-2 [16]) was 91%, the growth at 50 µM (HCT-15 [17]) was 78% and the growth at 5 µM (HCT-15 [18]) was 88%. For the same compound, the growth at 500 µM (OVCAR-8) was 64%, the growth at 5 µM (UACC-62) was 94% and the GI50 (SN12C [19]; read-out: GI50) was 9.09 µM. It also gave a CC50 (SN12C [19]; [21]) of over 50 µM, a TGI (SN12C [19]; read-out: TGI) of over 50 µM and a GI50 (SN12C [19]; read-out: pGI50 (converted)) of 9.12 µM. The CC50 (SN12C [19]; [22]) was over 50.1 µM, the TGI (SN12C [19]; read-out: pTGI) was over 50.1 µM and the growth at 5 µM (HOP-92 [20]) was 60%. For the same compound, the growth at 5000 µM (OVCAR-4) was 21%, the GI50 (CAKI-1; read-out: GI50) was 10.6 µM and the CC50 (CAKI-1; [21]) was over 50 µM. It also gave a TGI (CAKI-1; read-out: TGI) of over 50 µM, a GI50 (CAKI-1; read-out: pGI50 (converted)) of 10.5 µM and a CC50 (CAKI-1; [22]) of over 50.1 µM. For the same compound, the TGI (CAKI-1; read-out: pTGI) was over 50.1 µM and the growth at 5 µM (786-0) was 98%.
